According to ChEMBL document CHEMBL5579830, “Design and synthesis of 6-C-alkyl-DMDP type nanomolar inhibitors of β-galactosidase and β-glucosidase based on broussonetine S and related derivatives” (Eur J Med Chem, 2024):

Assays:
[1] = Inhibition of almond beta-glucosidase using p-nitrophenyl glycoside as substrate assessed as release of p-nitrophenol by spectrometric analysis; design: species or system Prunus dulcis
[2] = target: Alpha-galactosidase (Coffea arabica) (UniProt Q42656); experiment: Inhibition of coffee bean alpha-galactosidase using p-nitrophenyl glycoside as substrate assessed as release of p-nitrophenol at 1000 uM by spectrometric analysis relative to control
Alpha-galactosidase (Coffea arabica), sequence (Q42656 16-378 limits assumed): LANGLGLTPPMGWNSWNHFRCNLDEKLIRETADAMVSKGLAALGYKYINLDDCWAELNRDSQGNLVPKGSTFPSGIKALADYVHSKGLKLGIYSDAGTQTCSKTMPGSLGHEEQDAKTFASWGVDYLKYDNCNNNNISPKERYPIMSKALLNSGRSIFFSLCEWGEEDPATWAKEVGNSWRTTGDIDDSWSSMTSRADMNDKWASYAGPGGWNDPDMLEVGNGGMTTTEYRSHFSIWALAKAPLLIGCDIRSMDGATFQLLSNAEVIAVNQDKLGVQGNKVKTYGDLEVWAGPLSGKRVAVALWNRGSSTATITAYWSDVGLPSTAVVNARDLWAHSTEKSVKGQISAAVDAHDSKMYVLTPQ

[3] = Inhibition of bovine liver beta-galactosidase using p-nitrophenyl glycoside as substrate assessed as release of p-nitrophenol by spectrometric analysis; design: species or system Bos taurus
[4] = target: T1, Alpha-mannosidase (Canavalia ensiformis) (UniProt C0HJB3); experiment: Inhibition of jack bean alpha-mannosidase using p-nitrophenyl glycoside as substrate assessed as release of p-nitrophenol at 1000 uM by spectrometric analysis relative to control
T1 sequence (whole entry): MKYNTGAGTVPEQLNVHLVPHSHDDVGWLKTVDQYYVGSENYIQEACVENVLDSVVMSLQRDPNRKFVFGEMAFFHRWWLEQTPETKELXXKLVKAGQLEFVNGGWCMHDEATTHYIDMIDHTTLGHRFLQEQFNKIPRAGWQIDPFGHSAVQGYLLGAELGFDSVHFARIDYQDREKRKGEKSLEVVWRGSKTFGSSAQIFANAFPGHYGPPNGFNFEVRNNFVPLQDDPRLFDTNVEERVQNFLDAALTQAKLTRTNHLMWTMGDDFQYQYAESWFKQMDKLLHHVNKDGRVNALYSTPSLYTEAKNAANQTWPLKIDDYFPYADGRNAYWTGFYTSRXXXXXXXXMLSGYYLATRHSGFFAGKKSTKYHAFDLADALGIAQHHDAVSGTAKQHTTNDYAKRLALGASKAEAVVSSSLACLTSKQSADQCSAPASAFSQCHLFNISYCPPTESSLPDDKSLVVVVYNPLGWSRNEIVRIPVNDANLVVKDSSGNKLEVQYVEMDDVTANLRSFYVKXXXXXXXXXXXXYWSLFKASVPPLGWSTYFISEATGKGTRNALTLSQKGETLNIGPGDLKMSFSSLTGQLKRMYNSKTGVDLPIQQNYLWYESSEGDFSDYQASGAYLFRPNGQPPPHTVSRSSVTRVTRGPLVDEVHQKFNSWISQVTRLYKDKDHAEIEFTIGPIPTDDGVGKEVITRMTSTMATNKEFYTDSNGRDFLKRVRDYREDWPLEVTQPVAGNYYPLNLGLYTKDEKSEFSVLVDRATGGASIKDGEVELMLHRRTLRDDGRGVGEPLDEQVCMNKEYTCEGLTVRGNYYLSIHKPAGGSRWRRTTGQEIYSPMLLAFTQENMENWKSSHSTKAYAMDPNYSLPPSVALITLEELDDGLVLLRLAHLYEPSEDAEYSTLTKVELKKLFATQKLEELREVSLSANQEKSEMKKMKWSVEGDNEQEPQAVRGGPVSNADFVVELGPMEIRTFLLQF

[5] = Inhibition of Aspergillus niger amyloglucosidase using p-nitrophenyl glycoside as substrate assessed as release of p-nitrophenol by spectrometric analysis
[6] = target: T2, Lysosomal acid glucosylceramidase (Homo sapiens, UniProt P04062); experiment: Inhibition of human lysosome beta-glucosidase using p-nitrophenyl glycoside as substrate assessed as release of p-nitrophenol by spectrometric analysis
T2 sequence (P04062 whole entry): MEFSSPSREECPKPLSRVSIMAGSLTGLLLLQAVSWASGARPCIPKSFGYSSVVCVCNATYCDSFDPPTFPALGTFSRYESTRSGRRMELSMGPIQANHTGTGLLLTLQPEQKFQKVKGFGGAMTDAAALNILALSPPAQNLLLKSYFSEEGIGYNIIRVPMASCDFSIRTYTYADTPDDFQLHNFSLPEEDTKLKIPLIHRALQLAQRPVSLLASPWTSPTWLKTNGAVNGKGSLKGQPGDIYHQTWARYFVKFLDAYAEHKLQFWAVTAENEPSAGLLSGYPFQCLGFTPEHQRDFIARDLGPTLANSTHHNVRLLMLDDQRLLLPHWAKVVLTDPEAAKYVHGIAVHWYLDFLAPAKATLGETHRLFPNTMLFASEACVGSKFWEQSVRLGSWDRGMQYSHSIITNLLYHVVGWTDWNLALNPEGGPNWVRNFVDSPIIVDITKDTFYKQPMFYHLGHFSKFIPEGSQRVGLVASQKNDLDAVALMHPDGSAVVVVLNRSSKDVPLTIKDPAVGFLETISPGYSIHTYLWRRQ

[7] = target: T3, Tissue alpha-L-fucosidase (Bos taurus) (UniProt Q2KIM0); experiment: Inhibition of bovine kidney alpha-L-fucosidase using p-nitrophenyl glycoside as substrate assessed as release of p-nitrophenol at 1000 uM by spectrometric analysis relative to control
T3 sequence (whole entry): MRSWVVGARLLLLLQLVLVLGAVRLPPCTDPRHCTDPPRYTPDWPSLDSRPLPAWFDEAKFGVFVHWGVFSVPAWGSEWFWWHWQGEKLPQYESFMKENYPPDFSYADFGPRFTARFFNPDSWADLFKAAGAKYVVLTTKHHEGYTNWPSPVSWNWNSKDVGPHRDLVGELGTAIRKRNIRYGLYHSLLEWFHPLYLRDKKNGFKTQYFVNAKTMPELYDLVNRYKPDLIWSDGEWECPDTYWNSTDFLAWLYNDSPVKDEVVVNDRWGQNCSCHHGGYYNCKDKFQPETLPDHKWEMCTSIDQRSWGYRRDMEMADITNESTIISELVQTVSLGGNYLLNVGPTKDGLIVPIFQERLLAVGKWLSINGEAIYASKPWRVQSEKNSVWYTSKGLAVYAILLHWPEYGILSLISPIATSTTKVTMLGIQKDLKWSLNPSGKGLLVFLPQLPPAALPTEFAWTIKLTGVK

[8] = Inhibition of Escherichia coli beta-glucuronidase using p-nitrophenyl glycoside as substrate assessed as release of p-nitrophenol by spectrometric analysis
[9] = Inhibition of rice alpha-glucosidase using p-nitrophenyl glycoside as substrate assessed as release of p-nitrophenol by spectrometric analysis; design: species or system Oryza sativa
Alpha-glucosidase = Alpha-glucosidase (Saccharomyces cerevisiae S288c, UniProt P53341+P38158+P07265); experiment: Inhibition of yeast alpha-glucosidase using p-nitrophenyl glycoside as substrate assessed as release of p-nitrophenol by spectrometric analysis; format: protein assay
[10] = target: T4, Glucosylceramidase (Bos taurus) (UniProt Q2KHZ8); experiment: Inhibition of bovine liver beta-glucosidase using p-nitrophenyl glycoside as substrate assessed as release of p-nitrophenol at 1000 uM by spectrometric analysis relative to control
T4 sequence (whole entry): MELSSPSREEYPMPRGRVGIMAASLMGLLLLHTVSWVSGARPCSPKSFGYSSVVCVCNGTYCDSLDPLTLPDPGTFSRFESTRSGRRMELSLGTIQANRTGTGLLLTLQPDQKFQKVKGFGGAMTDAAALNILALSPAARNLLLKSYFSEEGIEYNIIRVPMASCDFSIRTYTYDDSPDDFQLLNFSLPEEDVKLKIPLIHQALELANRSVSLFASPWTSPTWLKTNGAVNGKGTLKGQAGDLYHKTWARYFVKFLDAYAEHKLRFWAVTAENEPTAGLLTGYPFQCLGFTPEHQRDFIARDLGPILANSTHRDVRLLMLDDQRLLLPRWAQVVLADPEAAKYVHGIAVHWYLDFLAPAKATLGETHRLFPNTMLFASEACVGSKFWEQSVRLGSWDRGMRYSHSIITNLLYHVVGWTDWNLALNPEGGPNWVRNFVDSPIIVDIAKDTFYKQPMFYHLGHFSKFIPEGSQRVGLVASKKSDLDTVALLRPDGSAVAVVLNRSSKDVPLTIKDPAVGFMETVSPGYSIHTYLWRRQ

[11] = target: Lysosomal alpha-glucosidase (Homo sapiens, UniProt P10253); experiment: Inhibition of human lysosome alpha-glucosidase using p-nitrophenyl glycoside as substrate assessed as release of p-nitrophenol by spectrometric analysis
[12] = Inhibition of snail beta-mannosidase using p-nitrophenyl glycoside as substrate assessed as release of p-nitrophenol by spectrometric analysis; design: species or system Helix pomatia
MKN-45 = experiment: cells; details: Homo sapiens, MKN-45, 48 h

CCCCCC[C@@H](O)[C@H]1N[C@H](CO)[C@@H](O)[C@@H]1O
IC50 [1]: 0.2 µM | inhibition [2]: 0% | IC50 [3]: 0.05 µM | inhibition [4]: 2.1% | IC50 [5]: 92 µM | IC50 [6]: 73 µM

CCCCCCC[C@H](O)[C@H]1N[C@H](CO)[C@@H](O)[C@@H]1O
IC50 [1]: 0.54 µM | inhibition [2]: 0% | IC50 [3]: 0.39 µM | inhibition [4]: 0.2%

OCCC[C@H](O)CCCCCCCC[C@H](O)[C@H]1N[C@H](CO)[C@@H](O)[C@@H]1O
IC50 [1]: 2.8 µM | inhibition [2]: 4.7% | IC50 [3]: 0.062 µM | inhibition [4]: 0% | inhibition [7]: 6% | IC50 [8]: 2.9 µM

OCCC[C@@H](O)CCCCCCCC[C@H](O)[C@@H]1N[C@@H](CO)[C@H](O)[C@H]1O
IC50 [9]: 11 µM | IC50 [1]: 92 µM | inhibition [2]: 4.8% | IC50 [3]: 0.74 µM | inhibition [4]: 2.2% | inhibition [7]: 4.3% | IC50 [8]: 56 µM

CCCCCCCC[C@@H](O)[C@H]1N[C@H](CO)[C@@H](O)[C@@H]1O.Cl
IC50 (Alpha-glucosidase): 28 µM

OCCC[C@H](O)CCCCCCCCC[C@@H]1N[C@@H](CO)[C@H](O)[C@H]1O
IC50 [9]: 1.2 µM | inhibition [10]: 46.5% | inhibition [2]: 0.3% | IC50 [3]: 50 µM | inhibition [4]: 2.2% | inhibition [7]: 0%

CCCCCCC[C@H](O)[C@@H]1N[C@@H](CO)[C@H](O)[C@H]1O
IC50 [9]: 6 µM | inhibition [2]: 0% | IC50 [3]: 41 µM | inhibition [4]: 2.6% | IC50 [11]: 2.1 µM

OCCC[C@H](O)CCCCCCCC[C@H](O)[C@@H]1N[C@@H](CO)[C@H](O)[C@H]1O
IC50 [9]: 7.3 µM | inhibition [2]: 4.9% | IC50 [3]: 5.1 µM | inhibition [4]: 0% | inhibition [7]: 5.9% | IC50 [8]: 29 µM

CCCCCCCCC[C@@H](O)[C@H]1N[C@H](CO)[C@@H](O)[C@@H]1O.Cl
IC50 (Alpha-glucosidase): 21 µM

CCCCCCC[C@@H](O)[C@H]1N[C@H](CO)[C@@H](O)[C@@H]1O
IC50 [1]: 0.12 µM | inhibition [2]: 0% | IC50 [3]: 0.015 µM | inhibition [4]: 1.7% | IC50 [12]: 96 µM | IC50 [5]: 91 µM | IC50 [6]: 14 µM

OCCC[C@@H](O)CCCCCCCCC[C@H]1N[C@H](CO)[C@@H](O)[C@@H]1O
inhibition [2]: 0% | IC50 [3]: 2.3 µM | inhibition [4]: 2.5% | inhibition [7]: 0% | IC50 [8]: 86 µM

OCCC[C@@H](O)CCCCCCCC[C@@H](O)[C@H]1N[C@H](CO)[C@@H](O)[C@@H]1O
IC50 [1]: 0.53 µM | inhibition [2]: 4.4% | IC50 [3]: 0.005 µM | inhibition [4]: 0% | IC50 [12]: 62 µM | inhibition [7]: 6.5% | IC50 [5]: 62 µM | IC50 [8]: 3.3 µM

OCCC[C@@H](O)CCCCCCCC[C@H](O)C1N[C@H](CO)[C@@H](O)[C@@H]1O (single isomer, unassigned)
IC50 [1]: 1.8 µM | inhibition [2]: 4.6% | IC50 [3]: 0.046 µM | inhibition [4]: 0% | inhibition [7]: 0.43% | IC50 [8]: 2.5 µM

OCCC[C@H](O)CCCCCCCC[C@@H](O)[C@H]1N[C@H](CO)[C@@H](O)[C@@H]1O
IC50 [1]: 0.69 µM | inhibition [2]: 4.5% | IC50 [3]: 0.007 µM | inhibition [4]: 0% | IC50 [12]: 71 µM | inhibition [7]: 0.86% | IC50 [5]: 73 µM | IC50 [8]: 2.7 µM

CCCCCCCC[C@H](O)[C@H]1N[C@H](CO)[C@@H](O)[C@@H]1O.Cl
IC50 (Alpha-glucosidase): 101 µM

CCCCCCCCC[C@H](O)[C@H]1N[C@H](CO)[C@@H](O)[C@@H]1O.Cl
IC50 (Alpha-glucosidase): 53 µM

CCCCCC[C@H](O)[C@H]1N[C@H](CO)[C@@H](O)[C@@H]1O
IC50 [1]: 0.64 µM | inhibition [2]: 0% | IC50 [3]: 0.36 µM | inhibition [4]: 2.1%

OCCC[C@H](O)CCCCCCCC[C@@H](O)[C@@H]1N[C@@H](CO)[C@H](O)[C@H]1O
inhibition [2]: 4.11% | IC50 [3]: 3.9 µM | inhibition [4]: 0% | inhibition [7]: 1.1% | IC50 [8]: 35 µM

Cl.OCCC[C@@H](O)CCCCCCCC[C@@H](O)[C@@H]1N[C@@H](CO)[C@H](O)[C@H]1O
IC50 (Alpha-glucosidase): 49 µM | inhibition [2]: 4.1% | IC50 [3]: 2.3 µM | inhibition [4]: 0% | inhibition [7]: 8.6% | IC50 [8]: 46 µM

CCCCCCC[C@@H](O)[C@@H]1N[C@@H](CO)[C@H](O)[C@H]1O
inhibition [2]: 0% | IC50 [3]: 29 µM | inhibition [4]: 0%

CC(=O)O[C@H]1C(=O)[C@@]2(C)[C@H]([C@H](OC(=O)c3ccccc3)[C@]3(O)C[C@H](OC(=O)[C@H](O)[C@@H](NC(=O)c4ccccc4)c4ccccc4)C(C)=C1C3(C)C)[C@]1(OC(C)=O)CO[C@@H]1C[C@@H]2O [PACLITAXEL]
EC50 (MKN-45): 0.003 µM
